Laboratory results published in patent US12042561B2, “Hydrophobic molecule-induced branched polymer aggregates and their use” (ANP Technologies, Inc., priority 2011, dated 2024).

Legend:
[1] = test system: MCF-7 human breast cancer cells; experiment: Cell survivability (MTS), MCF-7; details: varying concentrations based on amount of drug, FIG. 17
Excerpt: (§1) Metabolism in viable cells produces “reducing equivalents,” such as, NADH or NADPH. Such reducing compounds pass electrons to an intermediate electron transfer reagent that can reduce the tetrazolium product, MTS (Promega), into an aqueous, soluble formazan product, which is colored. At death, cells rapidly lose the ability to reduce tetrazolium products. The production of the colored formazan product, therefore, is proportional to the number of viable cells in culture.
(§2) The CellTiter 96® Aqueous products (Promega) are MTS assays for determining the number of viable cells in culture. […] A single reagent added directly to the assay wells at a recommended ratio of 20 μl reagent to 100 μl of culture medium was used. Cells were incubated 1-4 hours at 37° C. and then absorbance was measured at 490 nm.
(§3) Varying concentrations of CPT-11 and the camptothecin branched polymer aggregates described above were prepared.
(§4) Two cancer cell lines were maintained in suitable medium under recognized culture conditions. MCF-7 is a human breast cancer cell line and H460 is a human epithelial lung cancer cell line. Those cell lines were exposed to varying concentrations of CPT-11 and concentrations of the camptothecin aggregates based on the amount of drug. Cell survivability was assessed as described above.

[2] = test system: H460 human epithelial lung cancer cells; experiment: Cell survivability (MTS), H460; details: varying concentrations based on amount of drug, FIG. 18
Excerpt: as §1, §2, §3, §4

## CCc1c2c(nc3ccc(OC(=O)N4CCC(N5CCCCC5)CC4)cc13)-c1cc3c(c(=O)n1C2)COC(=O)[C@]3(O)CC [CPT-11, Irinotecan]
[1]
  cytotoxicity: increased with increasing drug concentration
[2]
  cytotoxicity: dose response curve of cytotoxicity
